The results in this text go back to US12350241B1, “Method for inhibiting proliferation of cancer cells” (IMAM MOHAMMAD IBN SAUD ISLAMIC UNIVERSITY, priority 2024, dated 2025).

Some test systems named below: HELA cancer stem cells; HEP2 cancer cells; PC3 cancer stem cells; FaDu cancer stem cells.
What all share (assay): growth inhibition of cancer cells (FIG. 3)
Type in all cases: cell-based

For assay [1], the system named is MDA-MB-468 cancer stem cells.
Assay [2] concerns HCT116 colon carcinoma stem cells.
Assay [3] deals with A549 lung cancer stem cells.

Turning to `CCCCOc1ccc(Oc2ccc(C=O)cc2)cc1` [YS2, 4-(4-butoxyphenoxy)benzaldehyde], the growth inhibition percentage entry in assay [1] was “about 95%”; in the assay on HELA cancer stem cells, “about 80%”; in assay [2] (HCT116 colon carcinoma stem cells), “about 90%”; in the assay on HEP2 cancer cells (HEP2 cancer cells), “about 70%”; in the assay with PC3 cancer stem cells, “about 90%”; in the assay on FaDu cancer stem cells it was “about 90%”. Also, the growth inhibition percentage result in assay [3] (A549 lung cancer stem cells) is on record as “about 90%”. Further, the “performance compared to doxorubicin (DOX)” value in assay [2] (HCT 116 cell line, versus commercially available doxorubicin) was “comparable to or outperformed DOX”; in the assay on HEP2 cancer cells (HEP cell line, versus commercially available doxorubicin), “comparable to or outperformed DOX”; in assay [3] (A549 cell line, versus commercially available doxorubicin), “comparable to or outperformed DOX”.
